How the values were obtained:
[1] = system: engorged adult female cattle ticks (Boophilus microplus); assay: Boophilus microplus injection test (BOOPMI Inj); assay type: in vivo; settings: application rate 20 μg/animal; injection into abdomen; assessed after 7 days
In short: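 Efficacy is read at 7 days as fertile egg laying (100% = no fertile eggs laid; 0% = all eggs fertile), with eggs of unclear fertility stored until larvae hatch at about 42 days. Five engorged adult females per dose each receive an abdominal injection of 1 μl compound dissolved in DMSO.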

[2] = system: cattle ticks (Boophilus microplus) Parkhurst strain, SP-resistant; assay: Boophilus microplus dip test (BOOPMI Dip); assay type: in vivo; settings: application rate 100 ppm, assessed after 7 days
In short: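 Adult engorged female SP-resistant Parkhurst ticks (8–10) were fully immersed in compound diluted in water from a DMSO solution, then kept in a climate-controlled room. After 7 days, fertile egg-laying was scored, with larval hatching checked at about 42 days; 100% efficacy means no fertile eggs.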

[3] = system: southern root-knot nematode (Meloidogyne incognita); assay: Meloidogyne incognita test (MELGIN); assay type: in vivo; settings: application rate 20 ppm; lettuce; after 14 days
Protocol: K. Meloidogyne incognita Test (MELGIN)
Solvent: 125.0 parts by weight of acetone
To prepare a suitable active compound preparation, 1 part by weight of active compound is mixed with the stated amount of solvent and the concentrate is diluted with water to the desired concentration.
Vessels are filled with sand, active compound solution, an egg/larvae suspension of the southern root-knot nematode (Meloidogyne incognita) and lettuce seeds. The lettuce seeds germinate and the plants develop. On the roots, galls are formed.
After 14 days, the nematicidal efficacy in % is determined by the formation of galls. 100% means that no galls have been found; 0% means that the number of galls on the treated plants corresponds to the untreated control.

[4] = system: adult houseflies (Musca domestica); assay: Musca domestica test (MUSCDO); assay type: in vivo; settings: application rate 100 ppm; after 2 days
In short: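 Groups of 10 adult Musca domestica exposed to a sugar-soaked sponge treated with the water-diluted DMSO preparation of compound at the chosen concentration. Percent kill read at day 2, where 0% means no flies killed and 100% all killed.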

[5] = system: adult cat fleas (Ctenocephalides felis); assay: Ctenocephalides felis oral test (CTECFE); assay type: in vivo; settings: application rate 100 ppm in citrated cattle blood; after 2 days
In short: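 Mortality read at 2 days as percent of fleas killed. Compound predissolved in DMSO, diluted into citrated cattle blood and offered to roughly 20 unfed adult C. felis via parafilm membrane feeder.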

[6] = system: green peach aphid (Myzus persicae); assay: Myzus persicae spray test (MYZUPE); assay type: in vivo; settings: application rate 500 g/ha; Chinese cabbage leaf discs; after 6 days
In short: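 Chinese cabbage leaf discs infested with all aphid stages sprayed with compound in acetone/DMF with alkylaryl polyglycol ether emulsifier in water. Efficacy (% aphids killed; 100% all dead, 0% none) scored after 6 days.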

[7] = system: caterpillars of the armyworm (Spodoptera frugiperda); assay: Spodoptera frugiperda spray test (SPODFR); assay type: in vivo; settings: application rate 500 g/ha; maize leaf discs; after 7 days
In short: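 Percent kill read at day 7 on caterpillar-infested maize leaf discs. Discs were first sprayed with aqueous emulsifier-containing (1000 ppm) preparations made from acetone/dimethylformamide solutions, and dried. Scale: 0% none dead, 100% all dead.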

[8] = system: larvae of the mustard beetle (Phaedon cochleariae); assay: Phaedon cochleariae spray test (PHAECO); assay type: in vivo; settings: application rate 500 g/ha; Chinese cabbage leaf discs; after 7 days
In short: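 Kill of mustard beetle larvae is read as % mortality 7 days after spraying. Spray liquid: active compound in acetone plus dimethylformamide, brought up with water holding 1000 ppm alkylaryl polyglycol ether emulsifier and diluted further in emulsifier-water.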

[9] = system: L1 larvae of the Australian sheep blowfly (Lucilia cuprina); assay: Lucilia cuprina test (LUCICU); assay type: in vivo; settings: application rate 100 ppm; after 2 days
In short: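 Percent mortality read at 2 days; 100% = all larvae killed, 0% = none. Test compound, predissolved in DMSO and water-diluted to the wanted level, was mixed into minced horsemeat holding roughly 20 first-instar larvae.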

[10] = system: greenhouse red spider mite (Tetranychus urticae); assay: Tetranychus urticae spray test, OP-resistant (TETRUR); assay type: in vivo; settings: application rate 500 g/ha; bean leaf discs; after 6 days
In short: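 Percent kill, scored 6 days post-spray (0% = none dead, 100% = all dead), on Phaseolus vulgaris leaf discs infested with every life stage of the OP-resistant spider mite. Compound dissolved in acetone plus DMF, diluted to test concentration with emulsifier-containing water (1000 ppm).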

[11] = system: adult cat fleas (Ctenocephalides felis); assay: Ctenocephalides felis in vitro contact test with adult cat fleas (T1); settings: after 48 h
In short: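 Adult cat fleas (Ctenocephalides felis), 5-10 per tube, were exposed to the inner surface of 25 ml test tubes coated with compound in acetone. Tubes were incubated lying flat under ambient conditions. Efficacy was then read by standing tubes upright and knocking the fleas to the floor. Fleas that stayed motionless or moved uncoordinatedly counted as dead or moribund, where 100% means all fleas dead or moribund and 0% means none harmed.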

[12] = system: adult dog ticks (Rhipicephalus sanguineus); assay: Rhipicephalus sanguineus in vitro contact test with adult brown dog ticks (T2); settings: after 48 h
In short: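 Acetone solutions coated onto test tube walls and floor, giving 5 μg/cm^2 at 900 ppm. Five to ten adult ticks held per tube in the dark at room temperature for 48 h, then heated at 45-50° C for up to 5 min; efficacy is the percentage of dead or moribund ticks unable to climb away.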

CNC(=O)c1cc(-c2cnn(-c3c(C(F)(F)F)c(C(F)(F)C(F)(F)F)nn3C)c2)ccc1Cl [Ic-152]
100%: efficacy (laying of fertile eggs) [1] | efficacy (laying of fertile eggs) [2] | nematicidal efficacy in % (formation of galls) [3] | efficacy (kill in %) [4] | efficacy (kill in %) [5] | efficacy in % [6] | efficacy in % [7] | efficacy in % [8] | efficacy (kill in %) [9] | efficacy in % [10] | efficacy (dead or moribund fleas) ([11]; application rate 1 μg/cm^2) | efficacy (dead or moribund fleas) ([11]; application rate 5 μg/cm^2) | efficacy (dead or moribund ticks) ([12]; application rate 1 μg/cm^2) | efficacy (dead or moribund ticks) ([12]; application rate 5 μg/cm^2)

Source: patent US9487489B2, “Halogen-substituted pyrazole derivatives as pest-control agents” (BAYER CROPSCIENCE AKTIENGESELLSCHAFT, priority 2013, dated 2016)
